These results are taken from patent US8143393B2, “Substituted 4-amino-pyrrolotriazine derivatives useful for treating hyper-proliferative disorders and diseases associated with angiogenesis” (Bayer HealthCare LLC, priority 2005, dated 2012).

This test deals with T1, FGFR-1 (Homo sapiens, UniProt P11362).
T1 construct: GST; made in house
As to the kind of experiment: FGFR-1 TR-FRET biochemical assay. How it is done:
FGFR-1TR-FRET Biochemical Assay
The FGFR-1 Assay was performed on half well 96-well opaque plates (Costar 3915) in a LANCE format. LANCE is a homogenous time resolved fluormetry based application available through Perkin Elmer. For this assay, 50 uL reactions were set up using: 0.6 uM ATP (Sigma), 25 nM poly GT-biotin (CIS BIO International), 2 nM Eu-labelled phospho-Tyr Ab (PY20 PerkinElmer), 10 nM Streptavidin-APC (Perkin Elmer), 5 nM FGFR1-GST (generated by DRT, Bayer Healthcare), 1% DMSO, 50 mM HEPES pH 7.5, 10 mM MgCl2, 0.1 mM EDTA, 0.015% Brij, 0.1 mg/ml BSA, 0.1% B-mercaptoethanol. All reactions were initiated with the addition of enzyme and were left to incubate for one hour at room temperature. Time-resolved fluorescence was then read on a Perkin Elmer VictorV Multilabel counter. The reading protocol uses an excitation wavelength at 340 nm and emission reads at both 615 and 665 nm. Signal was calculated as a ratio: (Flourescence at 665 nm/Flourescence at 615 nM)*10000 for each well. The background control used for this assay is the signal produced with all assay components excluding ATP. For IC50 generation, compounds were added prior to the enzyme initiation. A 50-fold stock plate was made with compounds serially diluted 1:5 in a 50% DMSO/50% dH2O solution. A 1 μL addition of the stock to the assay wells gave final compound concentrations ranging from 10 μM-0.128 nM in 1% DMSO. The data were expressed as percent inhibition: % inhibition=100−((Signal with inhibitor−background)/(Signal without inhibitor−background))*100.
(In general: Time-resolved FRET reads energy transfer from a long-lived donor to a nearby acceptor.)

The mark [1] stands for this setting: 0.6 uM ATP, 5 nM FGFR1-GST, bounds given in nM.
Where [2] appears, read: upper bound of the bin 'greater than 100 nM but less than 1 μM' (lower bound in E1).

T1 sequence (P11362 22-822): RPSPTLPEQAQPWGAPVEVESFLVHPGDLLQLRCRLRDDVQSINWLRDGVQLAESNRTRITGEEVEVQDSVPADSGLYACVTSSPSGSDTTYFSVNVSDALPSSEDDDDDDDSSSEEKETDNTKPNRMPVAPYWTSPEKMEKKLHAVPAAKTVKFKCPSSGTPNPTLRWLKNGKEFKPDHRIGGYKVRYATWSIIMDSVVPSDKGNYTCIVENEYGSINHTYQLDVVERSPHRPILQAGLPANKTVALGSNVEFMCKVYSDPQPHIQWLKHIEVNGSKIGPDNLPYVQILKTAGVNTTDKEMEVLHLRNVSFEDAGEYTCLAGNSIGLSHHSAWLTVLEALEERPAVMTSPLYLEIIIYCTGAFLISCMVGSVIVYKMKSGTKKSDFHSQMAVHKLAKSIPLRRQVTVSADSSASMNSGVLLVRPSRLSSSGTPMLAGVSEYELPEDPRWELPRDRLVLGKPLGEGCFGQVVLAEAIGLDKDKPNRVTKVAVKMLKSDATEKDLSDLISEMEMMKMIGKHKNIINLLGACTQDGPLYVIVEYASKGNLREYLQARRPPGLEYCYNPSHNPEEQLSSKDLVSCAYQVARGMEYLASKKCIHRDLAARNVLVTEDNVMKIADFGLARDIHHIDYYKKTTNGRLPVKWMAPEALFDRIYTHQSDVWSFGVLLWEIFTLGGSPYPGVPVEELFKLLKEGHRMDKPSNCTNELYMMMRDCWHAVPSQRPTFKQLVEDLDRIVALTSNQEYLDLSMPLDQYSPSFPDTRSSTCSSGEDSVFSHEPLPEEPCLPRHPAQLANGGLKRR

As a reminder, the IC50 is the concentration that gives 50% inhibition. A high value points to weaker potency in that assay. In the case of `Nc1ncnn2c(CN3CCOCC3)cc(-c3ccc(NC(=O)Nc4ccc(Cl)cn4)cc3)c12` [Example 63, N-{4-[4-amino-7-(morpholin-4-ylmethyl)pyrrolo[2,1-f][1,2,4]triazin-5-yl]phenyl}-N′-(5-chloropyridin-2-yl)urea], the 50% inhibitory concentration (IC50) runs as follows: under setting [1], greater than 100 nM; under setting [2], less than 1000 nM. Turning to `Nc1ncnn2c(CN3CCN(S(=O)(=O)CC(F)(F)F)CC3)cc(-c3ccc(NC(=O)Nc4cc(C(F)(F)F)ccc4F)cc3)c12` [Example 86, N-{4-[4-amino-7-({4-[(2,2,2-trifluoroethyl)sulfonyl]piperazin-1-yl}methyl)pyrrolo[2,1-f][1,2,4]triazin-5-yl]phenyl}-N′-[2-fluoro-5-(trifluoromethyl)phenyl]urea], the IC50 under setting [1] lay within 10 to 100 nM. For `Nc1ncnn2c(CN3CCNC(=O)C3)cc(-c3ccc(NC(=O)Nc4cc(C(F)(F)F)ccn4)cc3)c12` [Example 41, N-(4-{4-amino-7-[(3-oxopiperazin-1-yl)methyl]pyrrolo[2,1-f][1,2,4]triazin-5-yl}phenyl)-N′-[4-(trifluoromethyl)pyridin-2-yl]urea], the IC50 under setting [1] was less than 10 nM.

In the case of `Nc1ncnn2c(CCN3CCCC3)cc(-c3ccc(NC(=O)Nc4cc(C(F)(F)F)ccc4F)c(F)c3)c12` [Example 216, N-{4-[4-amino-7-(2-pyrrolidin-1-ylethyl)pyrrolo[2,1-f][1,2,4]triazin-5-yl]-2-fluorophenyl}-N′-[2-fluoro-5-(trifluoromethyl)phenyl]urea], the IC50 under setting [1] was in the range of 10 to 100 nM. Same read-out and setting: then `CC(C)(O)c1cc(-c2ccc(NC(=O)Nc3cc(C(F)(F)F)ccc3F)cc2)c2c(N)ncnn12` [Example 104, N-{4-[4-amino-7-(1-hydroxy-1-methylethyl)pyrrolo[2,1-f][1,2,4]triazin-5-yl]phenyl}-N′-[2-fluoro-5-(trifluoromethyl)phenyl]urea], with 10 to 100 nM. For `CC(C)(C)OC(=O)N1CCN(Cc2cc(-c3ccc(NC(=O)Nc4cc(C(F)(F)F)ccc4F)cc3)c3c(N)ncnn23)CC1` [Example 80, tert-butyl 4-[(4-amino-5-{4-[({[2-fluoro-5-(trifluoromethyl)phenyl]amino}carbonyl)amino]phenyl}pyrrolo[2,1-f][1,2,4]triazin-7-yl)methyl]piperazine-1-carboxylate], the half-inhibitory concentration (IC50) runs as follows: under setting [1], greater than 100 nM; under setting [2], less than 1000 nM.

With `Cc1cc(NC(=O)Nc2cc(C(F)(F)F)ccc2Cl)c(F)cc1-c1cc(CN2CCOCC2)n2ncnc(N)c12` [Example 147, N-{4-[4-amino-7-(morpholin-4-ylmethyl)pyrrolo[2,1-f][1,2,4]triazin-5-yl]-2-fluoro-5-methylphenyl}-N′-[2-chloro-5-(trifluoromethyl)phenyl]urea], the half-inhibitory concentration (IC50) under setting [1] was greater than 100 nM and the IC50 under setting [2] is less than 1000 nM. For `COc1cc(-c2cc(CN3CCOCC3)n3ncnc(N)c23)ccc1NC(=O)Nc1cccc(OC(F)(F)F)c1` [Example 33, N-{4-[4-amino-7-(morpholin-4-ylmethyl)pyrrolo[2,1-f][1,2,4]triazin-5-yl]-2-methoxyphenyl}-N′-[3-(trifluoromethoxy)phenyl]urea], the IC50 under setting [1] lay in the range of 10 to 100 nM. Still for that read-out and setting: then `Nc1ncnn2c(-c3cnco3)cc(-c3ccc(NC(=O)Nc4cc(C(F)(F)F)ccn4)c(F)c3)c12` [Example 273, N-{4-[4-amino-7-(1,3-oxazol-5-yl)pyrrolo[2,1-f][1,2,4]triazin-5-yl]-2fluorophenyl}-N′-[4-(trifluoromethyl)pyridin-2-yl]urea], with 10 to 100 nM; and `Nc1ncnn2c(CN3CCOCC3)cc(-c3ccc(NC(=O)Nc4ccc(Cl)c(C(F)(F)F)c4)nc3)c12` [Example 19, N-{5-[4-amino-7-(morpholin-4-ylmethyl)pyrrolo[2,1-f][1,2,4]triazin-5-yl]pyridin-2-yl}-N′-[4-chloro-3-(trifluoromethyl)phenyl]urea], with less than 10 nM.

Consider `Nc1ncnn2c(C3CCN(CCO)CC3)cc(-c3ccc(NC(=O)Nc4cc(C(F)(F)F)ccc4F)c(F)c3)c12` [Example 116, N-(4-4-amino-7-[1-(2-hydroxyethyl)piperidin-4-yl]pyrrolo[2,1-f][1,2,4]triazin-5-yl-2-fluorophenyl)-N′-[2-fluoro-5-(trifluoromethyl)phenyl]urea], for which, under setting [1], the IC50 is less than 10 nM. Under setting [1], `Nc1ncnn2c(CN3CCOCC3)cc(-c3ccc(NC(=O)Nc4cc(C(F)(F)F)ccc4F)nc3)c12` [Example 9, N-{5-[4-amino-7-(morpholin-4-ylmethyl)pyrrolo[2,1-f][1,2,4]triazin-5-yl]pyridin-2-yl}-N′-[2-fluoro-5-(trifluoromethyl)phenyl]urea] came in with an IC50 of less than 10 nM. Regarding `CN1CCN(C(=O)c2cc(-c3ccc(NC(=O)Nc4cc(C(F)(F)F)ccc4F)c(F)c3)c3c(N)ncnn23)CC1` [Example 161, N-(4-{4-amino-7-[(4-methylpiperazin-1-yl)carbonyl]pyrrolo[2,1-f][1,2,4]triazin-5-yl}-2-fluorophenyl)-N′-[2-fluoro-5-(trifluoromethyl)phenyl]urea], the half-inhibitory concentration (IC50) under setting [1] was less than 10 nM. With `Nc1ncnn2c(CCCN3CCOCC3)cc(-c3ccc(NC(=O)Nc4cc(C(F)(F)F)ccn4)cc3)c12` [Example 107, N-{4-[4-amino-7-(3-morpholin-4-ylpropyl)pyrrolo[2,1-f][1,2,4]triazin-5-yl]phenyl}-N′-[4-(trifluoromethyl)pyridin-2-yl]urea], the half-maximal inhibitory concentration (IC50) under setting [1] is less than 10 nM. On to `COC[C@@H]1CCCN1CCCc1cc(-c2ccc(NC(=O)Nc3cc(C(F)(F)F)ccc3F)c(F)c2)c2c(N)ncnn12` [Example 184, N-[4-(4-amino-7-{3-[(2S)-2-(methoxymethyl)pyrrolidin-1-yl]propyl}pyrrolo[2,1-f][1,2,4]triazin-5-yl)-2-fluorophenyl]-N′-[2-fluoro-5-(trifluoromethyl)phenyl]urea], for which the IC50 under setting [1] was less than 10 nM. Same read-out and setting: the same measure for `Cc1cc(-c2cc(CN3CCOCC3)n3ncnc(N)c23)ccc1NC(=O)Nc1ccc(F)c(C(F)(F)F)c1` [Example 27, N-{4-[4-amino-7-(morpholin-4-ylmethyl)pyrrolo[2,1-f][1,2,4]triazin-5-yl]-2-methylphenyl}-N′-[4-fluoro-3-(trifluoromethyl)phenyl]urea]: less than 10 nM. `Nc1ncnn2c(CCCN3CCNC(=O)C3)cc(-c3ccc(NC(=O)Nc4cc(C(F)(F)F)ccc4F)c(F)c3)c12` [Example 195, N-(4-{4-amino-7-[3-(3-oxopiperazin-1-yl)propyl]pyrrolo[2,1-f][1,2,4]triazin-5-yl}-2-fluorophenyl)-N′-[2-fluoro-5-(trifluoromethyl)phenyl]urea] gave an IC50 under setting [1] of less than 10 nM. Regarding `Nc1ncnn2c(C(O)C(O)CO)cc(-c3ccc(NC(=O)Nc4cc(C(F)(F)F)ccc4F)c(F)c3)c12` (stereo not shown) [Example 255, N-{4-[4-amino-7-(1,2,3-trihydroxypropyl)pyrrolo[2,1-f][1,2,4]triazin-5-yl]-2-flourophenyl}-N′-[2-fluoro-5-(trifluoromethyl)phenyl]urea], the IC50 under setting [1] lay in the range of 10 to 100 nM. On to `Nc1ncnn2c(CCN3CCOCC3)cc(-c3ccc(NC(=O)Nc4cc(C(F)(F)F)ccc4F)c(F)c3)c12` [Example 212, N-{4-[4-amino-7-(2-morpholin-4-ylethyl)pyrrolo[2,1-f][1,2,4]triazin-5-yl]-2-fluorophenyl}-N′-[2-fluoro-5-(trifluoromethyl)phenyl]urea], for which the IC50 under setting [1] was in the range of 10 to 100 nM.
